Data set [1] has as its system convulsions in mice induced by electrical stimulation. As to the kind of experiment: anticonvulsant effect on mice induced by electrical stimulation. It is filed as in vivo. The note with it: compared with blank group. The protocol: (1) Divide 40 mice (20♀20) into 5 groups at random, with 8 mice (4♀4) in each group, and label No. 1 to No. 8 with picric acid respectively; (2) All mice were tested according to the order of groups and labels electrical stimulation, the initial voltage was 40V, the voltage was increased by 2.5V each time, the time interval between two electrical stimulations for the same mouse was 20 min, the threshold voltage value of convulsion and the time from convulsion to complete recovery were recorded, and the dead mice were discarded, qualified mice were screened; (3) After screening, 7 mice (2♀5) in the 40 mice could not recover after convulsions and died, and the remaining 33 qualified mice […]; (4) From standby 7 mice were screened out as a supplement, and the number of the dead mice in step (2) was marked with picric acid and added to the corresponding groups, so that a total of 40 (20♀20) qualified mice in 5 groups were finally obtained., all mice were weighed and recorded.
Positive drug: sodium valproate (specification 0.2 g), take 1 tablet in a mortar, add 20 ml of 0.5% CMC-Na solution while grinding, to a suspended state, set EP tube for use; test drug (compound 5): Dissolve in distilled water to 5, 10, and 20 mg/ml solutions, respectively, and set EP tubes for later use.
Electrical stimulation was performed 1.5 hours after the last administration, and each mouse was given the threshold voltage measured before to observe the experimental phenomenon and record whether there was convulsions and death occurred.
The first group was the blank control group, which was given 0.4 ml/20 g of 0.5% CMC-Na by gavage; the second group was the positive drug control group, which was given sodium valproate 200 mg/kg by gavage; the third group was the test drug the low-dose group, which was given 100 mg/kg of compound 5 by gavage; the fourth group was the test drug medium-dose group, which was given 200 mg/kg of compound 5 by gavage; the fifth group was the test drug high-dose group, which was given 400 mg/kg of compound 5 by gavage.
1.5 h after the last administration, electrical stimulation was performed according to the threshold voltage measured before each mouse, the experimental phenomenon was observed, and the occurrence of convulsions and death were recorded. If convulsion occurs, record the time of complete recovery; if no convulsion occurs, continue to increase the voltage with a gradient of 2.5V to measure the current threshold voltage value and recovery time.
Strictly follow the 5 periods of convulsion in mice, namely, latency period, rigid flexion period, hindlimb extension period, clonic period and recovery period to judge whether the mice have convulsions after electrical stimulation, and the phenomenon of death can not be recovered after convulsions.

Data set [2] concerns reserpine depression model mice. The data set can be described thus: forced swimming test in mice (reserpine depression model). It is filed as in vivo, Kunming mice. The protocol: Experimental Drug, Animal, Grouping and Administration are Same as Sugar Water Preference Experiment Method.
Preparation of depression animal models, acute intraperitoneal injection of 6 mg/kg Res can cause a continuous decrease in monoamine neurotransmitters in the brain for 1 week, and depression-like behaviors last for 72 hours, it is often utilized for the preparation of depression models (Huang et al., 2004).
Forced swimming experiment process, the forced swimming experiment is an experiment in which animals are placed in an unavoidable stressful environment to detect the despair state of animal behavior (Porsolt et al., 1978). Male Kunming mice were selected and randomly divided into groups. Conduct in a quiet and enclosed behavioral observation room, with red lights for indoor lighting (25 lux). The experiment is divided into two stages, the first stage: adaptation experiment, 1 day before the test, 9:00-12:00 h, put the animals into the forced swimming test equipment (plexiglass drum: diameter 20 cm, height 25 cm, water depth 12 cm, water temperature 21-25° C., the upper side CCD camera is connected to the computer to record) after 15 minutes of adaptation, take it out, dry the hair with a towel and put it back into the cage. The second stage: testing experiment, animals in each group were put into the forced swimming bucket for 5 minutes at the same time period, and the behavioral activities during the testing period were tracked and recorded by digital cameras and then analyzed. Immobility time: The animal floats on the water surface, with no movement of the limbs or slight movement of the hind limbs to keep the head above the water surface. Evaluate depression like behavior by detecting the despair state of animals based on their immobility time.
Statistical analysis, the experimental data were analyzed by SPSS 19.0 statistical software, and all data were expressed as Means±SEM.

Setting [3] is: Res 6 mg/kg + compound 5 56 mg/kg i.p.

Structures can show the parent of a compound that is named as a salt.

Regarding `CC(C)c1cccc(C(C)C)c1OC(=O)CC1(CN(C)C)CCCCC1` [Compound 5, 2,6-diisopropylphenyl 2-(1-((dimethylamino)methyl)cyclohexyl)acetate hydrochloride], the “anti-electrical convulsion ability (threshold voltage increase)” value in data set [1] (100 mg/kg gavage, p>0.05) is given as “no significant effect”. Also, in data set [1] (200 mg/kg gavage, p>0.05), the “anti-electrical convulsion ability (threshold voltage increase)” value is recorded as “no significant effect”. Also, the “anti-electrical convulsion ability (threshold voltage increase)” value in data set [1] (400 mg/kg gavage, p<0.01) is on record as “significantly improve”. The “weight gain of mice” value in data set [1] (sodium valproate 200 mg/kg, compound 5 100, 200, 400 mg/kg gavage, p>0.05) is “no difference”. In addition, in data set [2] (setting [3]), the “antidepressant effect (forced swimming test)” value is reported as “significant antidepressant effect”; the “forced immobility time compared with the Res+A1P1 group” value is recorded as “shortened to a certain extent, but there was no significant difference”; the “forced immobility time compared with the Res+Pro group” value was “shortened and there was a significant difference”. Also, the “change of forced swimming immobility time compared with the Res+DMSO group” value in data set [2] (after Res 6 mg/kg i.p., CLI 50, Pro 25, A1P1 24 and 25, compound 5 56 mg/kg i.p.) was “slightly shortened”. Also, the “Forced swimming immobility time” value in data set [2] (after Res 6 mg/kg i.p., CLI 50, Pro 25, A1P1 24 and 25, compound 5 56 mg/kg i.p., 5 min test, Means±SEM, Res + DMSO 169.82 ± 11.22, DMSO 106.72 ± 16.49) stood at 116.29 ± 22.23 s.
